Assay [1] addresses T1, E. coli ALBP (allose binding protein) fusion protein CalsBY-QV (Gln-Val between ECFP and ALBP), SEQ ID NO: 36 (Escherichia coli, UniProt P39265).
T1 construct: made in house; host or cells: E. coli JM109 (DE3)
Kind of assay: Allose titration and sugar specificity of FRET sensor CalsBY-QV.

The target of assay [2] is T2, E. coli RBP (ribose binding protein) fusion protein CrbsBY-ND (Asn-Asp between ECFP and RBP), SEQ ID NO: 38 (Escherichia coli, UniProt P02925).
T2 construct: made in house; host or cells: E. coli JM109 (DE3)
Kind of assay: Ribose titration and sugar specificity of FRET sensor CrbsBY-ND. The settings on record: for affinity (substrate specificity): in words, FIG. 12C. On the procedure: (§1) The fluorescence analysis of the MBP fusion proteins expressed and purified in Example 2 was performed using fluorescence spectrophotometer Cary Eclipse (Varian, Australia) at 25° C., and the MBP fusion proteins were diluted in PBS buffer (pH 7.4) to the same concentrations of 0.2 μM. To define the FRET efficiency in the fluorescence analysis, the emission intensity ratio between the emission intensity of ECFP at 480 nm, measured at an excitation wavelength of 436 nm, and the emission intensity of EYFP at 530 nm, caused by FRET, was substituted into Equation 3 below for convenience: Ratio=[530 nm/480 nm] [Equation 3]
(§2) Profiles of the ratios at wide substrate concentrations were fit by a four-parameter Hill equation with SigmaPlot (SSI, USA) and the binding substance concentration corresponding to the medium between ratio10 mM and ratioapo was determined to be the dissociation constant (Kd) of the fusion proteins.
(§3) The selection of PBPs to be introduced into the MBP position was performed by collecting data from SCOP (Structural Classification of Proteins; http://scop.mrc-lmb.cam.ac.uk/scop/), and then investigating the kinetic change of three-dimensional structures which is accompanied by substrate binding in PDB (Protein Data Bank, http://www.rcsb.org/pdb/). For example, three kinds of E. coli-derived PBPs such as ALBP, RBP, and ARBP were introduced into the MBP site of the MBP fusion proteins according to the present invention. For this purpose, the genetic sequence information of said PBPs was secured from Swiss-Prot (http://kr.expasy.org/), and on the basis of the information, primers capable of amplifying genes encoding the PBPs were constructed. The genes were amplified by performing PCR from the chromosome of E. coli MG1655 using the constructed primers.
(§4) The fusion protein expression vectors constructed in the form of libraries as described above were transformed into E. coli JM109 (DE3), and 3-5 bacterial strains transformed with vectors were randomly selected from each of the libraries without carrying out the screening process described in Example 4, and were expressed and purified according to the method of Example 2. Then, the various PBP fusion proteins were subjected to analyze the fluorescence characteristics to each of substances, and sugar sensors (the fluorescent indicator proteins for detection of sugar) having the highest signal intensity were selected. As a result, as shown on FIGS. 11A, 11B and 11C, and Table 2 below, CalsBY-QV of SEQ ID NO: 36, CaraFY-PR of SEQ ID NO: 37 and CrbsBY-ND of SEQ ID NO: 38 could be secured.
(§5) To examine the substrate affinity of said three kinds of fusion proteins, the substrate specificity thereof for a variety of sugars was analyzed.

Assay [3] addresses T3, E. coli ARBP (arabinose binding protein) fusion protein CaraFY-PR (Pro-Arg between ECFP and ARBP), SEQ ID NO: 37 (Escherichia coli, UniProt P02924).
T3 construct: made in house; host or cells: E. coli JM109 (DE3)
Kind of assay: Arabinose titration and sugar specificity of FRET sensor CaraFY-PR. The settings on record: for affinity (substrate specificity): in words, FIG. 12B. On the procedure:
as §1, §2, §3, §4, §5

Assay [4] addresses T4, MBP (maltose binding protein) fusion protein CMY-LH (Leu-His between ECFP and MBP), SEQ ID NO: 32 (Escherichia coli, UniProt P0AEX9).
T4 construct: made in house; host or cells: E. coli JM109 (DE3)
Kind of assay: Maltose titration and sugar specificity of FRET sensor CMY-LH. The note with it: for affinity (substrate specificity): in words, FIG. 8A, 10 mM for d-glucose and melezitose, change attributed to contamination of trace maltose. The procedure: as §1, §2

For assay [5], the target named is T5, MBP (maltose binding protein) fusion protein CMY-LH variant CMY-LH/W62H (Trp62His in MBP), SEQ ID NO: 34 (Escherichia coli, UniProt P0AEX9, W88H).
T5 construct: made in house; host or cells: E. coli JM109 (DE3)
In words: Maltose titration and sugar specificity of FRET sensor CMY-LH/W62H. The note with it: range between 10 and 90% saturation. On the procedure:
as §1, §2

The target in assay [6] is T6, MBP (maltose binding protein) fusion protein CMY-QI (Gln-Ile between ECFP and MBP), SEQ ID NO: 31 (Escherichia coli, UniProt P0AEX9).
T6 construct: made in house; host or cells: E. coli JM109 (DE3)
In words: Maltose titration of FRET sensor CMY-QI. The settings on record: range between 10 and 90% saturation. The procedure: as §1, §2

The target of assay [7] is T7, SBP (sucrose binding protein; MBP mutant Asp14Leu, Lys15Phe, Trp62Tyr, Glu111Tyr) fusion protein CSY-BII (Escherichia coli, UniProt P0AEX9, D40L/E137Y/K41F/W88Y).
T7 construct: SBP = engineered MBP made on pMALc2x template; expressed in E. coli JM109(DE3), purified
In words: Sucrose and maltose titration of FRET sensor CSY-BII. The note with it: for Quantification range: range between 10 and 90% saturation. On the procedure:
as §1, §2
(§6) The MBP-encoding gene to be used as a template was a pMALc2x vector (NEB, USA), and to make the SBP gene, PCR was performed using primers of SEQ ID NOs: 27, 28, 29 and 11. Because the above-amplified gene contains partial mutations in MBP, including a substitution of Asp14 with Leu, a substitution of Lys15 with Phe, a substitution of Trp62 with Tyr, and a substitution of Glu111 with Tyr, it encodes the SBP gene capable of binding to sucrose, as reported in the prior art (Guntas, G. et al., PNAS, 102:11224, 2005).
(§7) The above SBP fusion protein expression vectors were transformed into E. Coli JM109 (DE3), expressed and purified according to the method of Example 3.

The target of assay [8] is T8, MBP (maltose binding protein) fusion protein CMY-BII (ECFP-SR-MBP-GS-EYFP) (Escherichia coli, UniProt P0AEX9).
T8 construct: mature MBP from pMALc2x; expressed in E. coli JM109(DE3), purified
Kind of assay: Maltose titration of FRET sensor CMY-BII. The settings on record: range between 10 and 90% saturation. The procedure:
as §1, §2

The target of assay [9] is T9, MBP (maltose binding protein) fusion protein CMY-B (ECFP-MBP-EYFP) (Escherichia coli, UniProt P0AEX9).
T9 construct: mature MBP from pMALc2x; expressed in E. coli JM109(DE3), purified
In words: Maltose response of FRET sensor CMY-B. The settings on record: in words; control for yeast imaging, 10 mM maltose. On the procedure:
as §1, §2

Assay [10] deals with T10, SBP (sucrose binding protein; MBP mutant Asp14Leu, Lys15Phe, Trp62Tyr, Glu111Tyr) fusion protein CSY-LH, SEQ ID NO: 39 (Escherichia coli, UniProt P0AEX9, D40L/E137Y/K41F/W88Y).
T10 construct: made in house; host or cells: E. coli JM109 (DE3)
Kind of assay: Sucrose and maltose titration and sugar specificity of FRET sensor CSY-LH. The settings on record: for Quantification range: range between 10 and 90% saturation. On the procedure: as §1, §2, §6, §7
The CSY-LH was analyzed for binding affinity for a variety of sugars.

In assay [11] the target is T11, SBP (sucrose binding protein; MBP mutant Asp14Leu, Lys15Phe, Trp62Tyr, Glu111Tyr) fusion protein CSY-B (Escherichia coli, UniProt P0AEX9, D40L/E137Y/K41F/W88Y).
T11 construct: SBP = engineered MBP made on pMALc2x template; expressed in E. coli JM109(DE3), purified
Kind of assay: Sucrose and maltose titration of FRET sensor CSY-B. The note with it: for Quantification range: range between 10 and 90% saturation. On the procedure: as §1, §2, §6, §7

Assay [12] deals with T12, MBP (maltose binding protein) fusion protein CMY-0 (ECFP-MBP-EYFP without connecting peptides) (Escherichia coli, UniProt P0AEX9).
T12 construct: mature MBP amplified from pMALc2x (NEB); expressed in E. coli JM109(DE3), purified
In words: Maltose titration of FRET sensor CMY-0 (fluorescence ratio 530/480 nm). The settings on record: range between 10 and 90% saturation. On the procedure: as §1, §2

The target of assay [13] is T13, MBP (maltose binding protein) fusion protein CMY-LH variant CMY-LH/W62A (Trp62Ala in MBP), SEQ ID NO: 33 (Escherichia coli, UniProt P0AEX9, W88A).
T13 construct: made in house; host or cells: E. coli JM109 (DE3)
Kind of assay: Maltose titration of FRET sensor CMY-LH/W62A. The note with it: range between 10 and 90% saturation. The procedure: as §1, §2

Assay [14] deals with T14, MBP (maltose binding protein) fusion protein CMY-LH variant CMY-LH/W62L (Trp62Leu in MBP), SEQ ID NO: 35 (Escherichia coli, UniProt P0AEX9, W88L).
T14 construct: made in house; host or cells: E. coli JM109 (DE3)
Kind of assay: Maltose titration and sugar specificity of FRET sensor CMY-LH/W62L. The settings on record: range between 10 and 90% saturation. The procedure:
as §1, §2

[15] abbreviates: ratio(10 mM) minus ratioapo, saturating sugar.

`OC[C@H]1OC(O)[C@H](O)[C@H](O)[C@@H]1O` (some centres unmarked) [allose]: the Quantification range in assay [1] (allose, range between 10 and 90% saturation) was 0.04 to 2.81 µM. In addition, in [2], the “affinity (substrate specificity)” value is reported as “very high affinity”.

`OC1OC[C@H](O)[C@H](O)[C@H]1O` (some centres unmarked) [arabinose]: in assay [3], binding was put at a Kd of 360 ± 10 nM. This compound also registered a Quantification range in assay [3] (arabinose, range between 10 and 90% saturation) of 0.05 to 2.74 µM. The Δratio in assay [3] (arabinose, ratio(10 mM) minus ratioapo, saturating sugar) stood at 0.29.

Consider `OC[C@H]1OC(O)[C@H](O)[C@@H](O)[C@@H]1O` (stereo partly drawn) [d-glucose], for which, in [4], the “affinity (substrate specificity)” value was “low level of affinity”.

For the compound `OC[C@H]1OC(O)[C@H](O)[C@@H](O)[C@H]1O` (some centres unmarked) [galactose], the “affinity (substrate specificity)” value in [3] is recorded as “very high affinity”.

With `OC[C@H]1O[C@@H](O[C@H]2[C@H](O)[C@@H](O)C(O)O[C@@H]2CO)[C@H](O)[C@@H](O)[C@H]1O` (some centres unmarked) [lactose], the “affinity (substrate specificity)” value in assay [3] is recorded as “low affinity”.

As for `OC[C@H]1O[C@H](O[C@H]2[C@H](O)[C@@H](O)C(O)O[C@@H]2CO)[C@H](O)[C@@H](O)[C@@H]1O` (some centres unmarked) [maltose], the Quantification range in assay [5] is 5 to 325 µM; in assay [6], 0.2 to 15.1 µM; in [7] it was 155-3,800 μM; in [8], 0.3 to 13.3 µM; in [10], 80-5,080 μM; in assay [11], 120-9,500 μM. The Quantification range in assay [4] (maltose, range between 10 and 90% saturation) was 0.2 to 13.2 µM; in assay [12] it was 0.5 to 11.2 µM; in [13] it was 31-2,080 μM; in assay [14] it was 10 to 650 µM. For the same compound, the sensitivity to maltose result in assay [9] is listed as “no sensitivity”.

Take `OC[C@H]1O[C@@](CO)(O[C@H]2O[C@H](CO)[C@@H](O)[C@H](O)[C@H]2O)[C@@H](O[C@H]2O[C@H](CO)[C@@H](O)[C@H](O)[C@H]2O)[C@@H]1O` [melezitose]: in assay [4], the “affinity (substrate specificity)” value is given as “low level of affinity”.

Regarding `OC[C@H]1O[C@H](OC[C@H]2OC(O)[C@H](O)[C@@H](O)[C@@H]2O)[C@H](O)[C@@H](O)[C@H]1O` (some centres unmarked) [melibiose], the “affinity (substrate specificity)” value in [3] was “low affinity”.

Turning to `C[C@@H]1OC(O)[C@H](O)[C@H](O)[C@H]1O` (some centres unmarked) [rhamnose], the “affinity (substrate specificity)” value in assay [3] is listed as “low affinity”.

Regarding `OC1OC[C@@H](O)[C@@H](O)[C@H]1O` (some centres unmarked) [ribose], the “affinity (substrate specificity)” value in [1] (in words, FIG. 12A, ribose at mM levels) was “low affinity”. Besides, the affinity in assay [2] (ribose, 50% saturation), expressed as Kd, was 170 ± 10 nM. For the same compound, the Quantification range in assay [2] (ribose, range between 10 and 90% saturation) lay within 0.03 to 1.15 µM. Also, the Δratio in [2] (ribose, ratio(10 mM) minus ratioapo, saturating sugar) is −0.12.

With `OC[C@H]1O[C@@](CO)(O[C@H]2O[C@H](CO)[C@@H](O)[C@H](O)[C@H]2O)[C@@H](O)[C@@H]1O` [sucrose], the Kd (commonly the constant that tells how readily two partners part at equilibrium) was 234 ± 18 µM in assay [7], 163 ± 3 µM in [10] and 286 ± 16 µM in [11]. In addition, the Quantification range in assay [7] is on record as 30-1,880 μM; in [10] it was 17-1,560 μM; in assay [11], 20-3,700 μM. For the same compound, the figures for the Δratio in [7] (setting [15]), in [10] (setting [15]) and in assay [11] (setting [15]) were 0.14, 0.72 and −0.11, respectively. The “Kd, fold higher than previously reported results” value in assay [10] (compared to Guntas et al., PNAS, 102:11224, 2005) is “about 25 fold”.

With `OC1OC[C@@H](O)[C@H](O)[C@H]1O` (some centres unmarked) [xylose], the results for the “affinity (substrate specificity)” value in assay [3] and in assay [2] were “low affinity” and “significant affinity”, respectively.

The values are drawn from US7432353B2, “Fluorescent indicator proteins” (priority 2005, dated 2008).
